Assay results published in patent US9963496B2, “Stable glucagon analogues and use for treatment of hypoglycaemia” (Novo Nordisk A/S, priority 2014, dated 2018).
pEC50: −log10 of the molar value. *1 amine or outer side, *2 acyl side, *3 side chain or, on linkers, in order; H or OH if unused. Where a SMILES comes first, the peptide text is derived from it. Side-chain parts run from the residue outwards. [ ]: non-standard residue; d: D form. The star is where a group is joined. γGlu = O=C(O)[C@H](CCC(=O)[*:2])N[*:1]; Desaminohistidyl = O=C(CCc1c[nH]cn1)*; Aib = CC(C)(N)C(=O)O

Key:
human glucagon receptor = target: T1, human glucagon receptor (Homo sapiens, UniProt P47871); assay: Assay (I)(b): glucagon receptor activation, CRE luciferase reporter gene assay in BHK cells; assay type: cell-based; conditions: BHK cells expressing human glucagon receptor and CRE luciferase, 3 h incubation; read-out: EC50 hGlucagonR
T1 construct: expressed in transfected cells; host or cells: BHK cells, clone BHK hGCGR A3*25; isolated membranes
T1 sequence (P47871 26-477): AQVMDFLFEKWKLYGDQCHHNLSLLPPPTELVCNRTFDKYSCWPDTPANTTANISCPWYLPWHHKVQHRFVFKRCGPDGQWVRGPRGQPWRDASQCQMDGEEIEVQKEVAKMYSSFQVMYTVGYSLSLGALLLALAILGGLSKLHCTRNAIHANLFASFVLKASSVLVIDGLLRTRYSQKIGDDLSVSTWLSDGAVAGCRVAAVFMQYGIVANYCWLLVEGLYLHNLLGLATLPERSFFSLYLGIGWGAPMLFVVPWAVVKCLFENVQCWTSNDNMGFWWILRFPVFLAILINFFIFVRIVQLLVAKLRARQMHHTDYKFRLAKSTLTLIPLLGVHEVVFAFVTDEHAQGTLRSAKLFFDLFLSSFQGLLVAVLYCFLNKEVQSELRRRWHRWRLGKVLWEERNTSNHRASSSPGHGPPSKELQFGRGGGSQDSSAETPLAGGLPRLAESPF
Experimental: The purpose of this assay is to test the activity, or potency, of the derivatives of the invention, in vitro. The in vitro potency is the measure of human GLP-1 receptor and/or glucagon receptor activation, respectively, in a whole cell assay.
In vitro potency was determined by measuring the response of human GLP-1 or glucagon receptor, respectively, in a reporter gene assay. The assay was performed in a stably transfected BHK cell line that expressed either the human GLP-1 receptor or the human glucagon receptor and contained the DNA for the cAMP response element (CRE) coupled to a promoter and the gene for firefly luciferase (CRE luciferase). […] When assay incubation was completed, the luciferase substrate (luciferin) was added and the enzyme converted luciferin to oxyluciferin and produced bioluminescence. The luminescence was measured as the readout for the assay.
(b) Glucagon Receptor Activation
The cells used in this assay (clone pLJ6′-4-25) were BHK cells with BHK570 as a parent cell line expressing the CRE luciferase gene (clone BHK/KZ10-20-48) and were established by further transfection with the human glucagon receptor (clone pLJ6′ in pHZ-1 vector).
The cells were cultured at 5% CO2 in DMEM medium with 10% FBS, 1× GlutaMAX, 1 mg/mL G418, 240 nM MTX (methotrexate) and 1% pen/strep (penicillin/streptomycin). They were aliquoted and stored in liquid nitrogen. Before each assay, an aliquot was taken up and washed three times in PBS before being suspended at the desired concentration in assay buffer. For 96-well plates the suspension was made to give a final concentration of 5×10 EE3 cells/well.
Assay Medium consisted of DMEM w/o phenol red, 10 mM Hepes, lx GlutaMAX, 2% Ovalbumin and 0.2% Pluronic F-68.
Cell stocks were thawed in a 37° C. water bath. Cells were washed three times in PBS. The cells were counted and adjusted to 5×10 EE3 cells/50 μl (1×10 EE5 cells/mL) in Assay Medium. A 50 μl aliquot of cells was transferred to each well in the assay plate.
Stocks of the test compounds and reference compounds were diluted to a concentration of […] in Assay Medium. Compounds were diluted 10-fold to give the following concentrations: […], 2×10 EE-7 M, 2×10 EE-8 M; 2×10 EE-9 M, 2×10 EE-10 M, 2×10 EE-11 M, 2×10 EE-12 M and 2×10 EE-13 M. For each compound a blank assay buffer control was also included.
A 50 μl aliquot of compound or blank was transferred from the dilution plate to the assay plate. Compounds were tested at the following final concentrations: 1×10 EE-6 M, 1×10 EE-7 M, 1×10 EE-8 M; 1×10 EE-9 M, 1×10 EE-10 M, 1×10 EE-11 M and 1×10 EE-12 M and 1×10 EE-13 M.
The assay plate was incubated for 3 h in a 5% CO2 incubator at 37° C. The assay plate was removed from the incubator and allowed to stand at room temperature for 15 min. A 100 μl aliquot of steadylite plus reagent was added to each well of the assay plate (reagent is light sensitive). Each assay plate was covered with aluminum foil to protect it from light and shaken for 30 min at room temperature. Each assay plate was read in a Packard TopCount NXT instrument.
The data from the TopCount instrument was transferred to GraphPad Prism software. The software performed a non-linear regression (log(agonist) vs response-Variable slope (four parameter)). EC50 values were calculated by the software and reported in pM.

physchem = assay type: physicochemical; conditions: pH 7.5
Text: Assay (III): ThT Fibrillation Assay for the Assessment of Physical Stability of Peptide Compositions The purpose of this assay is to assess the physical stability of the glucagon derivatives of the invention in aqueous solutions. Low physical stability of a peptide may lead to amyloid fibril formation, which is observed as well-ordered, thread-like macromolecular structures in the sample, which eventually may lead to gel formation. This has traditionally been measured by visual inspection of the sample. However, that kind of measurement is very cumbersome and depending on the observer. Therefore, the application of a small molecule indicator probe is much more advantageous. Thioflavin T (ThT) is such a probe and has a distinct fluorescence signature when binding to fibrils [Naiki et al. (1989) Anal. Biochem. 177, 244-249; LeVine (1999) Methods. Enzymol. 309, 274-284]. Here, as depicted in FIG. 1, F is the ThT fluorescence at the time t. The constant t0 is the time needed to reach 50% of maximum fluorescence. The two important parameters describing fibril formation are the lag-time calculated by t0−2τ and the apparent rate constant kapp 1/τ. Samples were prepared freshly before each assay. Each sample composition is described in the legends. The pH of the sample was adjusted to the desired value using appropriate amounts of concentrated NaOH and HCl. Thioflavin T was added to the samples from a stock solution in H2O to a final concentration of 1 μM. Sample aliquots of 200 μl (250 μM of the glucagon derivative/analogue in 10 mM HEPES buffer, pH 7.5) were placed in a 96 well microtiter plate (Packard OptiPlate™-96, white polystyrene). Usually, four or eight replica of each sample (corresponding to one test condition) was placed in one column of wells. The plate was sealed with Scotch Pad (Qiagen). Incubation at given temperature, shaking and measurement of the ThT fluorescence emission were done in a Fluoroskan Ascent FL fluorescence platereader (Thermo Labsystems). The plate was incubated 37° C. with orbital shaking adjusted to 960 rpm with an amplitude of 1 mm. Fluorescence measurement was done using excitation through a 444 nm filter and measurement of emission through a 485 nm filter. Each run was initiated by incubating the plate at the assay temperature for 10 min. The plate was measured every 20 minutes for a desired period of time. Between each measurement, the plate was shaken and heated as described. After completion of the ThT assay the four or eight replica of each sample was pooled and centrifuged at 20000 rpm for 30 minutes at 18° C. The supernatant was filtered through a 0.22 μm filter and an aliquot was transferred to a HPLC vial. The concentration of peptide in the initial sample and in the filtered supernatant was determined by reverse phase HPLC using an appropriate standard as reference. The percentage fraction the concentration of the filtered sample constituted of the initial sample concentration was reported as the recovery. The measurement points were saved in Microsoft Excel format for further processing and curve drawing and fitting was performed using GraphPad Prism. The background emission from ThT in the absence of fibrils was negligible. The data points were typically a mean of four or eight samples and shown with standard deviation error bars. Only data obtained in the same experiment (i.e. samples on the same plate) were presented in the same graph ensuring a relative measure of fibrillation between experiments. The data set may be fitted to Eq. (1).

Row | SMILES | pEC50 (human glucagon receptor) | recovery at 250 μM (physchem) [%]
1 | CC(=O)N[C@@H](CCC(=O)N[C@@H](CCC(=O)N[C@@H](CCC(=O)N[C@@H](CCC(=O)NCCCC[C@H](NC(=O)[C@@H](NC(=O)[C@H](Cc1ccccc1)NC(=O)[C@H](CC(=O)O)NC(=O)[C@H](CCC(N)=O)NC(=O)[C@H](C)NC(=O)[C@H](CCCNC(=N)N)NC(=O)[C@H](CCCNC(=N)N)NC(=O)[C@H](CO)NC(=O)[C@H](CCC(=O)O)NC(=O)[C@H](CC(C)C)NC(=O)[C@H](Cc1ccc(O)cc1)NC(=O)[C@H](CCCCN)NC(=O)[C@H](CO)NC(=O)[C@H](Cc1ccc(O)cc1)NC(=O)[C@H](CC(=O)O)NC(=O)[C@H](CO)NC(=O)[C@@H](NC(=O)[C@H](Cc1ccccc1)NC(=O)[C@@H](NC(=O)CNC(=O)[C@H](Cc1c[nH]cn1)NC(=O)C(C)(C)NC(=O)CCc1c[nH]cn1)[C@@H](C)O)[C@@H](C)O)C(C)C)C(=O)N[C@@H](Cc1c[nH]c2ccccc12)C(=O)N[C@@H](CC(C)C)C(=O)N[C@@H](CC(C)C)C(=O)N[C@@H](CO)C(=O)N[C@H](C(=O)O)[C@@H](C)O)C(=O)O)C(=O)O)C(=O)O)C(=O)O [Example 2, N^ϵ24-[(4S)-4-[[(4S)-4-[[(4S)-4-[[(4S)-4-acetamido-4-carboxybutanoyl]amino]-4-carboxybutanoyl]amino]-4-carboxybutanoyl]amino]-4-carboxybutanoyl]-[Imp1, Aib2, His3, Glu15, Lys24, Leu27, Ser28]-Glucagon] (Desaminohistidyl-[Aib]HGTFTSDYSKYLESRRAQDFVK([γGlu-γGlu-γGlu-γGlu-Ac])WLLST-OH) | 11.30 | 104
2 | CC(=O)N[C@@H](CCC(=O)N[C@@H](CCC(=O)N[C@@H](CCC(=O)N[C@@H](CCC(=O)NCCCC[C@H](NC(=O)[C@@H](NC(=O)[C@H](Cc1ccccc1)NC(=O)[C@H](CCC(=O)O)NC(=O)[C@H](CCC(N)=O)NC(=O)[C@H](C)NC(=O)[C@H](CCCNC(=N)N)NC(=O)[C@H](CCCNC(=N)N)NC(=O)[C@H](CO)NC(=O)[C@H](CCC(=O)O)NC(=O)[C@H](CC(C)C)NC(=O)[C@H](Cc1ccc(O)cc1)NC(=O)[C@H](CCCCN)NC(=O)[C@H](CO)NC(=O)[C@H](Cc1ccc(O)cc1)NC(=O)[C@H](CC(=O)O)NC(=O)[C@H](CO)NC(=O)[C@@H](NC(=O)[C@H](Cc1ccccc1)NC(=O)[C@@H](NC(=O)CNC(=O)[C@H](Cc1c[nH]cn1)NC(=O)C(C)(C)NC(=O)CCc1c[nH]cn1)[C@@H](C)O)[C@@H](C)O)C(C)C)C(=O)N[C@@H](Cc1c[nH]c2ccccc12)C(=O)N[C@@H](CC(C)C)C(=O)N[C@@H](CC(C)C)C(=O)N[C@@H](CO)C(=O)N[C@H](C(=O)O)[C@@H](C)O)C(=O)O)C(=O)O)C(=O)O)C(=O)O [Example 7, N^ϵ24-[(4S)-4-[[(4S)-4-[[(4S)-4-[[(4S)-4-acetamido-4-carboxybutanoyl]amino]-4-carboxybutanoyl]amino]-4-carboxybutanoyl]amino]-4-carboxybutanoyl]-[Imp1, Aib2, His3, Glu15, Glu21, Lys24, Leu27, Ser28]-Glucagon] (Desaminohistidyl-[Aib]HGTFTSDYSKYLESRRAQEFVK([γGlu-γGlu-γGlu-γGlu-Ac])WLLST-OH) | 11.70 | 100
